Experimental data reported in ChEMBL document CHEMBL1122067, “Species- or isozyme-specific enzyme inhibitors. 4. Design of a two-site inhibitor of adenylate kinase with isozyme selectivity” (J Med Chem, 1982).
Where “and” joins values, the source holds several entries; their conditions need not be identical. Equal values may be shown once. Each block holds one molecule with its values, some of them ahead of it.

Tests used:
[1] = Non-competitive binding inhibition constant (Ki) of rat adenylate kinase (AK) isozymes was determined
[2] = molecular target: T1, GTP:AMP phosphotransferase AK3, mitochondrial (Rattus norvegicus, UniProt P29411); assay: Competitive binding inhibition constant of rat Adenylate kinase III was determined
[3] = Competitive binding inhibition constant (Ki) of rat adenylate kinase (AK) isozymes was determined
[4] = Non competitive binding inhibition constant (Ki) of rat adenylate kinase (AK) isozymes was determined
[5] = molecular target: T2, Adenylate kinase 2, mitochondrial (Rattus norvegicus, UniProt P29410); assay: Non competitive binding inhibition constant (Ki) of rat adenylate kinase (AK II) isozymes was determined
[6] = molecular target: T1, GTP:AMP phosphotransferase AK3, mitochondrial; assay: Non competitive binding inhibition of rat adenylate kinase IIl was determined
[7] = molecular target: T1, GTP:AMP phosphotransferase AK3, mitochondrial; assay: Competitive binding inhibition constant of rat adenylate kinase IIl was determined
[8] = Non competitive binding inhibition constant(Ki) of rat adenylate kinase (AK) isozymes was determined
[9] = molecular target: T1, GTP:AMP phosphotransferase AK3, mitochondrial; assay: Non competitive binding inhibition constant of rat aAdenylate kinase III was determined
[10] = Non-competitive binding inhibition constant(Ki) of rat adenylate kinase (AK) isozymes was determined
[11] = molecular target: T2, Adenylate kinase 2, mitochondrial; assay: Competitive binding inhibition constant(Ki) of rat adenylate kinase (AK II) isozymes was determined
[12] = Ability to inhibit the rat muscle adenylate kinase isozyme in competition with the AMP varied
[13] = Ability to inhibit the rat muscle adenylate kinase isozyme in competition with the ATP varied
[14] = molecular target: T2, Adenylate kinase 2, mitochondrial; assay: Ability to inhibit the rat muscle adenylate kinase (AK II) isozyme in competition with the AMP varied; details: in the assay text read “rat liver” for “rat muscle”
[15] = molecular target: T2, Adenylate kinase 2, mitochondrial; assay: Ability to inhibit the rat muscle adenylate kinase (AK II) isozyme in competition with the ATP varied; details: in the assay text read “rat liver” for “rat muscle”
[16] = molecular target: T1, GTP:AMP phosphotransferase AK3, mitochondrial; assay: Ability to inhibit the rat muscle adenylate kinase lII in competition with the AMP varied; details: in the assay text read “rat liver adenylate kinase III” for “rat muscle adenylate kinase lII”
[17] = molecular target: T2, Adenylate kinase 2, mitochondrial; assay: Ability to inhibit the rat muscle adenylate kinase(AK II) isozyme in competition with the AMP varied; details: in the assay text read “rat liver” for “rat muscle”
[18] = molecular target: T2, Adenylate kinase 2, mitochondrial; assay: Ability to inhibit the rat muscle adenylate kinase(AK II) isozyme in competition with the ATP varied; details: in the assay text read “rat liver” for “rat muscle”

T1 sequence (P29411 whole entry): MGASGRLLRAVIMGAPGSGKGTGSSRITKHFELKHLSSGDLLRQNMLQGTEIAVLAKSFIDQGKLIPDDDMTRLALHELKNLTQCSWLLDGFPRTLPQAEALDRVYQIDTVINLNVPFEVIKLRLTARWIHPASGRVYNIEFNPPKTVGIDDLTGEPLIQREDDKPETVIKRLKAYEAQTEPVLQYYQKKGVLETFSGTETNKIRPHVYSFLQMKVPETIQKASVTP

- Ki [1]: 12.9 mM
- Ki [2]: 4.8 mM
SMILES: CC(=O)NCCCCCCNc1ncnc2c1ncn2C1O[C@H](COP(=O)(O)OP(=O)(O)OP(=O)(O)O)[C@@H](O)[C@H]1O (some centres not stated)

- Ki [3]: 2 mM
- Ki [2]: 3 mM
SMILES: CCCCN(CCCC)c1ncnc2c1ncn2C1O[C@H](COP(=O)(O)OP(=O)(O)OP(=O)(O)O)[C@@H](O)[C@H]1O (some centres not stated)

- Ki [4]: 4.8 mM
- Ki [5]: 12.6 mM
- Ki [6]: 14 mM
SMILES: CC(=O)NCCCCCCCCNc1ncnc2c1ncn2C1O[C@H](COP(=O)(O)O)[C@@H](O)[C@H]1O (some centres not stated)

- Ki [1]: 6 mM
- Ki [7]: 6.2 mM
SMILES: O=C(CI)NCCCCCNc1ncnc2c1ncn2C1O[C@H](COP(=O)(O)OP(=O)(O)OP(=O)(O)O)[C@@H](O)[C@H]1O (some centres not stated)

- Ki [5]: 11.4 mM
- Ki [8]: 3.1 mM
- Ki [9]: 12.4 mM
SMILES: CC(=O)NCCNc1ncnc2c1ncn2C1O[C@H](COP(=O)(O)O)[C@@H](O)[C@H]1O (some centres not stated)

- Ki [10]: 6.2 mM
- Ki [11]: 0.06 mM
- Ki [2]: 0.07 mM
SMILES: CCCSc1nc2c(N)ncnc2n1[C@@H]1O[C@H](COP(=O)(O)OP(=O)(O)OP(=O)(O)O)[C@@H](O)[C@H]1O

- Ki [1]: 4 mM
- Ki [2]: 0.32 mM
SMILES: Nc1ncnc2c1nc(Sc1ccccc1)n2[C@@H]1O[C@H](COP(=O)(O)OP(=O)(O)OP(=O)(O)O)[C@@H](O)[C@H]1O

- Inhibition constant [12]: 0.26 µM
- Inhibition constant [13]: 0.26 µM
- Inhibition constant [14]: 0.28 µM
- Inhibition constant [15]: 0.3 µM
- Inhibition constant [16]: 0.3 µM
SMILES: Nc1ncnc2c1ncn2[C@@H]1O[C@H](COP(=O)(O)OP(=O)(O)OP(=O)(O)OP(=O)(O)OP(=O)(O)OC[C@H]2O[C@@H](n3cnc4c(N)ncnc43)[C@H](O)[C@@H]2O)[C@@H](O)[C@H]1O

- Inhibition constant [12]: 3.5 µM
- Inhibition constant [13]: 3 µM
- Inhibition constant [17]: 0.06 µM
- Inhibition constant [18]: 0.08 µM
- Inhibition constant [16]: 0.08 µM and 0.07 µM
SMILES: CCSc1nc2c(N)ncnc2n1C1O[C@H](COP(=O)(O)OP(=O)(O)OP(=O)(O)OP(=O)(O)OP(=O)(O)OC[C@H]2OC(n3cnc4c(N)ncnc43)[C@H](O)[C@@H]2O)[C@@H](O)[C@H]1O (some centres not stated)
